Assay results published in US5861477A (priority 1996, dated 1999).
Entries after “also recorded” stand apart in the source; their conditions may differ. Where two headings read alike, the source gives them in different places. Bridges are numbered along the chain shown (N, C = ends). Where no end group is shown, it is not given here.

How the values were obtained:
TrPepz = TrPepz (synthetic cyclic peptide catalyst mimicking the active site of trypsin); conditions: up to 3 hrs
[1] = Chymotryptic activity: hydrolysis of BTEE; assay type: biochemical; conditions: in words
Experimental: Chymotryptic activity. The catalytic activity of αCT and CHPepz was determined by hydrolysis of BTEE in 0.08M Tris buffer, pH 7.8 containing 0.01M CaCl2 as described (Hummel, B. C. W. (1959) Can. J. Biochem. Physiol. 37, 1393-1399). Assays were done at 25° C. using 8.06×10^-4 μmoles of αCT or 7.49×10^-4 μmoles of ChPepz and different substrate concentrations (from 3 to 6 mM) in a total reaction volume of 1.0 ml. The change of absorbance at 256 nm was monitored on a recording spectrophotometer against a reference cuvette containing 1 ml of the same concentration of BTEE, but without αCT or ChPepz.
1.0 ml of substrate (BTEE) was mixed with solutions (10 μl aliquots) of ChPepz, or negative control peptides (containing 1-10 μg/10 μl) or αCT and activity was monitored by increase in absorbance at 256 nm at 37° C. (or at room temperature).
ChPepz solution was made in 10^-3 N HCl, since it will not digest itself in this solvent. Solutions of ChPepz were always made immediately before use. […] After mixing ChPepz with substrate (BTEE), there was typically a lag of 2-5 min (depending on pepzyme/substrate ratio) before any change in A256 was observed. However, in the early stages of the purification, the activity needed to be monitored over a period of several hours. It was important to ensure that negative controls (containing unrelated peptides in amounts similar to those of ChPepz in the test samples) were also monitored at the same time because the background absorbance will increase and the test samples had to be corrected for this background. As the sample's purity improves, maximum A256 was achieved more quickly. See, e.g., Atassi, M. Z. in Immunochemistry of Proteins, ed. […]
Tryptic activity. […] Kinetic constants for hydrolysis of BTEE and TAME were determined from the linear plots of 1/initial velocity (Vi in μmoles/min) versus 1/substrate concentration as described (Lineweaver, H. and Burk, D. (1934) J. Amer. Chem. Soc. 56, 658).
Inhibition of Enzymatic Activity. […] Activities were monitored spectrophotometrically as above and were compared to uninhibited controls. […]

[2] = Tryptic activity: hydrolysis of TAME; assay type: biochemical; conditions: for Km / kcat / kcat /Km: hydrolysis of TAME, pH 8.0 and 25° C.
Experimental: Tryptic activity. Measurement of tryptic activity was done in 0.046M Tris-HCl buffer, pH 8.0, containing 0.0115M CaCl2 as described (Hummel, B. C. W. (1959), id) using TAME as the substrate. For the assays, 8.4×10^-4 μmoles of […] or 1.6 c 10^-3 μmoles of TrPepz were allowed to hydrolyze different amounts of substrate at 25° C. in a total reaction volume of 1.0 ml. […] Kinetic constants for hydrolysis of BTEE and TAME were determined from the linear plots of 1/initial velocity (Vi in μmoles/min) versus 1/substrate concentration as described (Lineweaver, H. and Burk, D. (1934) J. Amer. Chem. Soc. 56, 658).
To TAME solutions (1 ml containing different amounts of substrate), an aliquot (10 μl) of TrPepz, or negative control peptide solutions (containing 1-10 μg/10 μl) was added, mixed immediately and the increase of absorbance at 247 nm was measured at 37° C. (or at room temperature).
TrPepz solutions were always made immediately before use. Although TrPepz has no potential tryptic cleavage points, it lost activity on standing in solution at 4° C. […] TrPepz will not act on chromogenic substrates--it was inhibited by p-nitro analine (and probably is inhibited by other aromatic amines). After mixing TrPepz with substrate, there was a lag of 2-5 minutes (depending on pepzyme/substrate ratio) before any change in A247 was observed. In the early stages of the purification, the activity was always monitored over a period of several hours. Negative controls (containing unrelated peptides in amounts similar to those of TrPepz in the test samples) were also monitored at the same time because the background absorbance will increase and the test samples had to be corrected for this background. As the sample's purity improved, maximum A247 was achieved more quickly.
Inhibition of Enzymatic Activity. The effects of inhibitors or disulfide bond reduction on enzymatic activities were done as described above except that the enzymes were pre-mixed (3 hrs, 25° C.) with 10 molar excess of inhibitor (or DTT) prior to addition to the substrate (140-150 molar excess relative to the catalyst). Activities were monitored spectrophotometrically as above and were compared to uninhibited controls.
In addition, test were performed which compared the activity of the two proteases under differing temperature parameters.

myoglobin and casein = experiment: Hydrolysis of proteins by enzymes or peptide enzyme catalysts (peptide maps); assay type: biochemical, sperm-whale (myoglobin), bovine (casein)
Experimental: Hydrolysis of Proteins by Enzymes or Peptide Enzyme Catalysts. Hydrolyses were done at 37° C. on aliquots (200 μl) containing 1 mg of myoglobin (5.6×10-2 μmoles) or casein (4.2×10^-2 μmoles) in 0.1M triethylamine-acetic acid buffer, pH 8.0 with 51 μg of αCT (2.06×10^-3 μmoles) and 2.9 μg of ChPepz (1.1×10^-3 μmoles) for 31/2 hrs or with 49 μg trypsin (2.06×10^-3 μmoles) and 5.0 μg TrPepz (1.87×10^-3 μmoles) for 8 hrs. The samples were then acidified (to pH 3.0) with 0.1M HCl freeze-dried and redissolved in 100 μl of H2 O at pH 3.0, and the entire sample was applied as a single spot to Whatman No. 3MM paper and subjected, in the first dimension, to ascending chromatography in n-butanol-acetic acid-water (4:1:5, vol/vol) followed by high voltage electrophoresis (3000 volts, 55 min), in the second dimension, in pyridine-acetic acid-water (1:10:289, vol/vol), pH 3.65, as described (Atassi, M. Z. and Saplin, B. J. (1968) Biochemistry 7, 688-698). The papers were then dried, steamed and stained with 0.2% ninhydrin in ethanol and the color was allowed to develop at room temperature. The papers were photographed 48 hrs after staining.

[3] = tested on: model peptides (SEQ ID NO:7-10); experiment: Action of TrPepz on model peptides; assay type: biochemical
[4] = Loss of pepzyme activity on storage in solution and on freezing and thawing; assay type: physicochemical
Experimental: ChPepz solution was made in 10^-3 N HCl, since it will not digest itself in this solvent. Solutions of ChPepz were always made immediately before use. […] After mixing ChPepz with substrate (BTEE), there was typically a lag of 2-5 min (depending on pepzyme/substrate ratio) before any change in A256 was observed. However, in the early stages of the purification, the activity needed to be monitored over a period of several hours. It was important to ensure that negative controls (containing unrelated peptides in amounts similar to those of ChPepz in the test samples) were also monitored at the same time because the background absorbance will increase and the test samples had to be corrected for this background. As the sample's purity improves, maximum A256 was achieved more quickly. See, e.g., Atassi, M. Z. in Immunochemistry of Proteins, ed. M. Z. Atassi, Vol. 2, pp. 77-176, Plenum, New York, N.Y. (1977); King, D. S., et al. Int. J. Pept. Prot. Res. 36: 255-266 (1990).
TrPepz solutions were always made immediately before use. […] In the early stages of the purification, the activity was always monitored over a period of several hours. Negative controls (containing unrelated peptides in amounts similar to those of TrPepz in the test samples) were also monitored at the same time because the background absorbance will increase and the test samples had to be corrected for this background. […]

[5] = TAME, pH 8.0 and 25° C., cited from earlier work

DNYRGYSLG
cleaved bond (TrPepz): Arg-Gly

QLEPSTSSAVPLIGKG
cleaved bond (TrPepz): Lys-Gly

cyclo(-S-cystinyl-glycyl-tyrosyl-histidyl-phenylalanyl-glycyl-glycyl-seryl- aspartyl-glycyl-glutamyl-glycyl-seryl-aspartyl-glycyl-glycyl-valyl-seryl-tryptophanyl-glycyl-leucyl-glycyl-glycyl-aspartyl-glycyl-alanyl-alanyl-histidyl-cystinyl-S) (CGYHFGGSDGEGSDGGVSWGLGGDGAAHC; disulfide 1-29) [TrPepz]
hydrolytic activity on BTEE [1]: zero activity; also recorded: no effect; also recorded: not hydrolyzed; also recorded: not hydrolysed | activity on TAME after reduction of the disulfide bond (cyclic structure) ([2]; 10 molar excess of DTT): zero activity; also recorded: fully inactivated; also recorded: completely lost | activity on TAME in presence of TPCK ([2]; 10 molar excess of TPCK): the two curves superimposed; also recorded: not by TPCK; also recorded: not affected | activity on TAME in presence of BPTI ([2]; 10 molar excess of inhibitor): zero activity; also recorded: completely inhibited; also recorded: inhibited entirely | activity on TAME in presence of DIFP ([2]; 10 molar excess of inhibitor): zero activity; also recorded: fully inactivated; also recorded: inhibited entirely; also recorded: completely inhibited | activity on TAME in presence of PMSF ([2]; 10 molar excess of inhibitor): zero activity; also recorded: fully inactivated; also recorded: inhibited entirely; also recorded: completely inhibited | activity on TAME in presence of human α1 -antitrypsin ([2]; 10 molar excess of inhibitor): zero activity; also recorded: completely inhibited; also recorded: inhibited entirely | activity on TAME in presence of soybean trypsin inhibitor ([2]; 10 molar excess of inhibitor): completely inhibited; also recorded: inhibited entirely | % Activity of Native Enzyme at 35° C. ([2]; Temp. 10): 7.4% | % Activity of Native Enzyme at 35° C. ([2]; Temp. 35): approx. 40% | % Activity of Native Enzyme at 35° C. ([2]; Temp. 48): approx. 50% | lag before any change in A247 ([2]; after mixing with substrate, depends on pepzyme/substrate ratio): 2 to 5 min | Km [2]: 2420 ± 90 µM | kcat [2]: 85 ± 2.6 sec.^-1 | kcat /Km [2]: 35000 M⁻¹ s⁻¹ | rate of TAME hydrolysis relative to the rate obtained with the enzyme itself ([2]; relative to trypsin): about 40% | inhibition by p-nitro analine ([2]; will not act on chromogenic substrates): inhibited | hydrolysis of myoglobin and casein, peptides compared with those of the respective enzyme (myoglobin and casein; 37° C., pH 8.0, 3 1/2 hrs (ChPepz) or 8 hrs (TrPepz)): essentially the same as the pattern of the respective protein obtained by tryptic hydrolysis | proteolytic activity in presence of DIFP (myoglobin and casein; protein substrates): completely inhibited | proteolytic activity in presence of PMSF (myoglobin and casein; protein substrates): completely inhibited | proteolytic activity in presence of TPCK (myoglobin and casein; protein substrates): no effect | efficiency at hydrolyzing Lys-Lys, Lys-Lys-Lys, Arg-Lys and Lys-Arg bonds compared with trypsin (myoglobin and casein; yields of lysine and arginine in hydrolysates): more efficient than trypsin | hydrolysis of the Lys-Gly bond of peptide SEQ ID NO:7 ([3]; 3 hrs, molar ratio of substrate/TrPepz, 1:60): over 95% | cleavage of lysozyme sequences SEQ ID NO:8, 9, 10 at the C-bond of lysine and arginine ([3]; no other products): completely cleaved | freezing and thawing cycles to complete loss of activity [4]: 5 cycles | time to complete loss of activity on storage in solution ([4]; 4° C.): two

B1: Trypsin: native bovine trypsin (TPCK-trypsin, Worthington), positive control (protein, UniProt P00760 24-246, looked up)
Serine protease 1: IVGGYTCGANTVPYQVSLNSGYHFCGGSLINSQWVVSAAHCYKSGIQVRLGEDNINVVEGNEQFISASKSIVHPSYNSNTLNNDIMLIKLKSAASLNSRVASISLPTSCASAGTQCLISGWGNTKSSGTSYPDVLKCLKAPILSDSSCKSAYPGQITSNMFCAGYLEGGKDSCQGDSGGPVVCSGKLQGIVSWGSGCAQKNKPGVYTKVCNYVSWIKQTIASN
modifications: TPCK-treated
notes: native bovine trypsin (TPCK-trypsin, Worthington), positive control
hydrolytic activity on BTEE [1]: zero activity; also recorded: does not hydrolyze | hydrolytic activity on BTEE ([1]; listed as trypsin): not hydrolysed | % Activity of Native Enzyme at 35° C. ([2]; Temp. 10): 4.5% | % Activity of Native Enzyme at 35° C. ([2]; Temp. 35): 100% | % Activity of Native Enzyme at 35° C. ([2]; Temp. 48): 67% | Km [2]: 2560 ± 160 µM | kcat [2]: 221 ± 9.7 sec.^-1 | kcat /Km [2]: 86000 M⁻¹ s⁻¹ | kcat ([2]; listed as trypsin): 221 sec.^-1 | hydrolytic activity on TAME ([2]; in words): hydrolyzes | Km ([5]; Lorand et al. 1961, read-out: Km reported value): 2760 µM | kcat reported value ([5]; Martin et al. 1959): 187 s⁻¹
